Test results taken from patent US20070213301A1 (ACHILLION PHARMACEUTICALS, INC., priority 2006, published 2007).

Test system: HCV replicon
Assay: HCV replicon replication assay (NPTII ELISA)
Assay type: cell-based, Hepatitis C virus (Huh-7 cells)
Conditions: Hepatitis C virus, Huh-7, 72 h, inhibition of HCV replicon replication in Huh-7 HCV replicon-containing cells, three days incubation, NPT level by ELISA; read-out: EC50
Procedure: Compounds claimed herein are tested for the ability to inhibit viral replication of the Hepatitis C replicon in cultured cells in which the HCV replicon construct has been incorporated. The HCV replicon system was described by Bartenschlager, et. al (Science, 285, pp. 110-113 (1999)). The replicon system is predictive of in vivo anti-HCV activity; compounds that are active in humans uniformly evidence activity in the replicon assay.
In this assay HCV replicon containing cells are treated with different concentrations of the test compound to ascertain the ability of the test compound to suppress replication of the HCV replicon. As a positive control, HCV replicon-containing cells are treated with different concentrations of interferon alpha, a known inhibitor of HCV replication. The replicon assay system includes Neomycin Phosphotransferase (NPT) as a component of the replicon itself in order to detect the transcription of replicon gene products in the host cell. Cells in which the HCV replicon is actively replicating have high levels of NPT; the level of NPT is proportional to HCV replication. […] The NPT level of each sample is measured using a captured ELISA.
The HCV replicon contains, 5′-3′, the HCV-IRES, the neomycin phosphotransferase (neo) gene, the IRES of encephalomyocarditis virus, which directs translation of HCV sequences NS3 to NS5B, and the 3′-NTR. The sequence of the HCV replicon has been deposited in GenBank (Accession no. AJ242652).
The replicon is transfected into Huh-7 cells using standard methods such as electroporation.
The cells are then seeded onto 96-well plates at a density of 6000-7500 cells/100 microliters/well (6-7.5×10^5 cells/10 ml/plate). The plates are then incubated at 37° C. in a 5% CO2 incubator.
HCV replicon-containing cells are rinsed with once PBS once; 2 mls of trypsin are then added. Cells are incubated at 37° C. in a 5% CO2 incubator for 3-5 minutes. 10 mls of complete medium is added to stop the reaction. Cells are blown gently, put into a 15 ml tube, and spun at 1200 rpm for four minutes. The trypsin/medium solution is removed and 5 mls of medium (500 ml DMEM (high glucose)) from BRL catalog #12430-054; 50 mls 10% FBS, 5% Geneticin G418 (50 mg/ml, BRL catalog #10131-035), 5 ml MEM non-essential amino acids (100× BRL #11140-050) and 5 ml pen-strep (BRL #15140-148) is added. The cells and media are mixed carefully
Cells are plated with screening medium (500 ml DMEM (BRL #21063-029), 50 ml FBS (BRL #10082-147) and 5 ml MEM non-essential amino acid (BRL #11140-050) at 6000-7500 cells/100 μl/well of 96 well plate (6-7.5×10^5 cells/10 ml/plate). Plates are placed into 37° C. 5% CO2 incubator overnight.
The following morning, drugs (test compounds or interferon alpha) are diluted in 96 well U bottom plates with media or DMSO/media, depending on the final concentration chosen for screening. Generally for 6 concentrations of each test compounds ranging from 10 micromolar to 0.03 micromolar are applied. 100 μl of the test compound dilution is placed in wells of the 96 well plate containing the HCV replicon cells. Media without drug is added to some wells as a negative controls. DMSO is known to affect cell growth. Therefore, if drugs diluted in DMSO are used, all wells, including negative control (media only) and positive control (interferon alpha) wells, must contain the same concentration of DMSO, for single dose screening. The plates are incubated at 37° C. in a humidified 5% CO2 environment for three days.
On day four, the NTPII assay is quantitated. The medium is poured from the plates and the plates are washed once in 200 μl of PBS. The PBS is then decanted and the plates tapped in a paper towel to remove any remaining PBS. Cells are fixed in situ with 100 μl/well of pre-cooled (−20° C.) methanol:acetone (1:1) and the plates are placed at −20° C. for 30 minutes.
The fixing solution is poured from the plates and the plates allowed to air-dry completely (approximately one hour). […]

Compound: CCCCCCOc1ccc(N(C(N)=O)c2nc(-c3ccc(C)nc3)cs2)cc1 [Compound 143, 1-(4-(hexyloxy)phenyl)-1-(4-(6-methylpyridin-3-yl)thiazol-2-yl)urea]
- EC50: 1 to 10 µM

Compound: CCCCCN(C)c1ccc(N(C(=O)COC(C)=O)c2nc(-c3cccnc3)cs2)cc1C(F)(F)F [Compound 51, 2-((4-(methyl(pentyl)amino)-3-(trifluoromethyl)phenyl)(4-(pyridin-3-yl)thiazol-2-yl)amino)-2-oxoethyl acetate]
- EC50: < 1 µM

Compound: CCCCCOc1ccc(N(C(=O)CN(C)C)c2nc(-c3cccnc3)cs2)cc1C(F)(F)F [Compound 41, 2-(dimethylamino)-N-(4-(pentyloxy)-3-(trifluoromethyl)phenyl)-N-(4-(pyridin-3-yl)thiazol-2-yl)acetamide]
- EC50: < 1 µM

Compound: NC(=O)N(c1ccc(OCC2CCCCC2)c(F)c1)c1nc(-c2ccncc2)cs1 [Compound 142, 1-(4-(cyclohexylmethoxy)-3-fluorophenyl)-1-(4-(pyridin-4-yl)thiazol-2-yl)urea]
- EC50: 1 to 10 µM

Compound: CCCCCOc1ccc(N(C(N)=O)c2nc(-c3ccncc3)cs2)cc1F [Compound 141, 1-(3-fluoro-4-(pentyloxy)phenyl)-1-(4-(pyridin-4-yl)thiazol-2-yl)urea]
- EC50: > 10 µM

Compound: CCCCCOc1ccc(N(C(C)=O)c2nc(CN(C)C)cs2)cc1C(F)(F)F [Compound 20, N-(4-((dimethylamino)methyl)thiazol-2-yl)-N-(4-(pentyloxy)-3-(trifluoromethyl)phenyl)acetamide]
- EC50: 1 to 10 µM

Compound: CCCCCOc1ccc(N(C(=O)COC(C)=O)c2nc(-c3ccc(F)c(F)c3)cs2)cc1C(F)(F)F [Compound 54, 2-((4-(3,4-difluorophenyl)thiazol-2-yl)(4-(pentyloxy)-3-(trifluoromethyl)phenyl)amino)-2-oxoethyl acetate]
- EC50: < 1 µM

Compound: CCCCCOc1ccc(N(C(=O)C(=O)OC)c2nc(-c3ccc4[nH]c(=O)oc4c3)cs2)cc1C(F)(F)F [Compound 100, methyl 2-oxo-2-((4-(2-oxo-2,3-dihydrobenzo[d]oxazol-6-yl)thiazol-2-yl)(4-(pentyloxy)-3-(trifluoromethyl)phenyl)amino)acetate]
- EC50: < 1 µM

Compound: NC(=O)N(c1ccc(F)c(C(F)(F)F)c1)c1nc(-c2cccnc2)cs1 [Compound 83, 1-(4-fluoro-3-(trifluoromethyl)phenyl)-1-(4-(pyridin-3-yl)thiazol-2-yl)urea]
- EC50: < 1 µM

Compound: CCCCOc1ccc(N(C(N)=O)c2nc(-c3ccc4c(c3)NC(=O)CO4)cs2)cc1C(F)(F)F [Compound 134, 1-(4-butoxy-3-(trifluoromethyl)phenyl)-1-(4-(3-oxo-3,4-dihydro-2H-benzo[b][1,4]oxazin-6-yl)thiazol-2-yl)urea]
- EC50: 1 to 10 µM

Compound: CCCCOc1ccc(N(C(N)=O)c2nc(-c3ccccn3)cs2)cc1C(F)(F)F [Compound 103, 1-(4-butoxy-3-(trifluoromethyl)phenyl)-1-(4-(pyridin-2-yl)thiazol-2-yl)urea]
- EC50: < 1 µM

Compound: CCCCCOc1ccc(N(C(N)=O)c2nc(-c3cccnc3)cs2)cc1F [Compound 87, 1-(3-fluoro-4-(pentyloxy)phenyl)-1-(4-(pyridin-3-yl)thiazol-2-yl)urea]
- EC50: < 1 µM

Compound: CCCCCOc1ccc(N(C(=O)C(=O)OC)c2nc(-c3ccc(F)cc3F)cs2)cc1C(F)(F)F [Compound 37, methyl 2-((4-(2,4-difluorophenyl)thiazol-2-yl)(4-(pentyloxy)-3-(trifluoromethyl)phenyl)amino)-2-oxoacetate]
- EC50: < 1 µM

Compound: CCCCCOc1ccc(N(C(C)=O)c2nc(CNC(C)=O)cs2)cc1C(F)(F)F [Compound 29, N-(4-(acetamidomethyl)thiazol-2-yl)-N-(4-(pentyloxy)-3-(trifluoromethyl)phenyl)acetamide]
- EC50: 1 to 10 µM

Compound: CCCCCOc1ccc(N(C(=O)c2cc(C)on2)c2nc(-c3cccnc3)cs2)cc1C(F)(F)F [Compound 34, 5-methyl-N-(4-(pentyloxy)-3-(trifluoromethyl)phenyl)-N-(4-(pyridin-3-yl)thiazol-2-yl)isoxazole-3-carboxamide]
- EC50: < 1 µM

Compound: CCCCCCCCOc1ccc(N(C(=O)CO)c2nc(-c3cccnc3)c(F)s2)cc1C(F)(F)F [Compound 169, N-(5-fluoro-4-(pyridin-3-yl)thiazol-2-yl)-2-hydroxy-N-(4-(octyloxy)-3-(trifluoromethyl)phenyl)acetamide]
- EC50: < 1 µM

Compound: CCCCCCCCOc1ccc(N(C(=O)COC(C)=O)c2nc(-c3cccnc3)cs2)cc1C(F)(F)F [Compound 158, 2-((4-(octyloxy)-3-(trifluoromethyl)phenyl)(4-(pyridin-3-yl)thiazol-2-yl)amino)-2-oxoethyl acetate]
- EC50: < 1 µM

Compound: CCCCCCOc1ccc(N(C(N)=O)c2nc(-c3ccc(O)c(C(N)=O)c3)cs2)cc1 [Compound 144, 5-(2-(1-(4-(hexyloxy)phenyl)ureido)thiazol-4-yl)-2-hydroxybenzamide]
- EC50: 1 to 10 µM

Compound: C/C=N/N(c1ccc(OCCCCCCCC)cc1)c1nc(-c2cccnc2)cs1 [Compound 190, (E)-2-(2-ethylidene-1-(4-(octyloxy)phenyl)hydrazinyl)-4-(pyridin-3-yl)thiazolo]
- EC50: < 1 µM

Compound: CCCCCOc1ccc(N(C(=O)C2CCCCC2)c2nc(-c3ccccn3)cs2)cc1C(F)(F)F [Compound 96, N-(4-(pentyloxy)-3-(trifluoromethyl)phenyl)-N-(4-(pyridin-2-yl)thiazol-2-yl)cyclohexanecarboxamide]
- EC50: < 1 µM

Compound: NCCN(c1ccc(OCCCCc2cccs2)c(C(F)(F)F)c1)c1nc(-c2cccnc2)c(F)s1 [Compound 193, N1-(5-fluoro-4-(pyridin-3-yl)thiazol-2-yl)-N1-(4-(4-(thiophen-2-yl)butoxy)-3-(trifluoromethyl)phenyl)ethane-1,2-diamine]
- EC50: 1 to 10 µM

Compound: CCCCCCCCOc1ccc(N(C(C)=O)c2ncc(-c3cccnc3)s2)cc1C(F)(F)F [Compound 194, N-(4-(octyloxy)-3-(trifluoromethyl)phenyl)-N-(5-(pyridin-3-yl)thiazol-2-yl)acetamide]
- EC50: < 1 µM

Compound: NC(=O)N(c1ccc(OCC2CCCCC2)c(F)c1)c1nc(-c2ccccn2)cs1 [Compound 118, 1-(4-(cyclohexylmethoxy)-3-fluorophenyl)-1-(4-(pyridin-2-yl)thiazol-2-yl)urea]
- EC50: 1 to 10 µM

Compound: CCCCCCOc1ccc(N(C(N)=O)c2nc(-c3cccnc3)cs2)cc1 [Compound 145, 1-(4-(hexyloxy)phenyl)-1-(4-(pyridin-3-yl)thiazol-2-yl)urea]
- EC50: < 1 µM

Compound: CCCCCOc1ccc(N(C(C)=O)c2nc(C(=O)Nc3cccnc3)cs2)cc1C(F)(F)F [Compound 7, 2-(N-(4-(pentyloxy)-3-(trifluoromethyl)phenyl)acetamido)-N-(pyridin-3-yl)thiazole-4-carboxamide]
- EC50: 1 to 10 µM

Compound: CCCCCCCCc1ccc(N(C(=O)C(N)C(C)C)c2nc(-c3cccnc3)c(F)s2)cc1C(F)(F)F (stereo not drawn) [Compound 180, 2-amino-N-(5-fluoro-4-(pyridin-3-yl)thiazol-2-yl)-3-methyl-N-(4-octyl-3-(trifluoromethyl)phenyl)butanamide]
- EC50: < 1 µM

Compound: CCCCCN(C)c1ccc(N(C(N)=O)c2nc(-c3ccc(F)cc3)cs2)cc1C(F)(F)F [Compound 140, 1-(4-(4-fluorophenyl)thiazol-2-yl)-1-(4-(methyl(pentyl)amino)-3-(trifluoromethyl)phenyl)urea]
- EC50: < 1 µM
